Usually IC50 stands for the point on the concentration scale where inhibition reaches its midpoint.

T1 sequence (O95180 whole entry): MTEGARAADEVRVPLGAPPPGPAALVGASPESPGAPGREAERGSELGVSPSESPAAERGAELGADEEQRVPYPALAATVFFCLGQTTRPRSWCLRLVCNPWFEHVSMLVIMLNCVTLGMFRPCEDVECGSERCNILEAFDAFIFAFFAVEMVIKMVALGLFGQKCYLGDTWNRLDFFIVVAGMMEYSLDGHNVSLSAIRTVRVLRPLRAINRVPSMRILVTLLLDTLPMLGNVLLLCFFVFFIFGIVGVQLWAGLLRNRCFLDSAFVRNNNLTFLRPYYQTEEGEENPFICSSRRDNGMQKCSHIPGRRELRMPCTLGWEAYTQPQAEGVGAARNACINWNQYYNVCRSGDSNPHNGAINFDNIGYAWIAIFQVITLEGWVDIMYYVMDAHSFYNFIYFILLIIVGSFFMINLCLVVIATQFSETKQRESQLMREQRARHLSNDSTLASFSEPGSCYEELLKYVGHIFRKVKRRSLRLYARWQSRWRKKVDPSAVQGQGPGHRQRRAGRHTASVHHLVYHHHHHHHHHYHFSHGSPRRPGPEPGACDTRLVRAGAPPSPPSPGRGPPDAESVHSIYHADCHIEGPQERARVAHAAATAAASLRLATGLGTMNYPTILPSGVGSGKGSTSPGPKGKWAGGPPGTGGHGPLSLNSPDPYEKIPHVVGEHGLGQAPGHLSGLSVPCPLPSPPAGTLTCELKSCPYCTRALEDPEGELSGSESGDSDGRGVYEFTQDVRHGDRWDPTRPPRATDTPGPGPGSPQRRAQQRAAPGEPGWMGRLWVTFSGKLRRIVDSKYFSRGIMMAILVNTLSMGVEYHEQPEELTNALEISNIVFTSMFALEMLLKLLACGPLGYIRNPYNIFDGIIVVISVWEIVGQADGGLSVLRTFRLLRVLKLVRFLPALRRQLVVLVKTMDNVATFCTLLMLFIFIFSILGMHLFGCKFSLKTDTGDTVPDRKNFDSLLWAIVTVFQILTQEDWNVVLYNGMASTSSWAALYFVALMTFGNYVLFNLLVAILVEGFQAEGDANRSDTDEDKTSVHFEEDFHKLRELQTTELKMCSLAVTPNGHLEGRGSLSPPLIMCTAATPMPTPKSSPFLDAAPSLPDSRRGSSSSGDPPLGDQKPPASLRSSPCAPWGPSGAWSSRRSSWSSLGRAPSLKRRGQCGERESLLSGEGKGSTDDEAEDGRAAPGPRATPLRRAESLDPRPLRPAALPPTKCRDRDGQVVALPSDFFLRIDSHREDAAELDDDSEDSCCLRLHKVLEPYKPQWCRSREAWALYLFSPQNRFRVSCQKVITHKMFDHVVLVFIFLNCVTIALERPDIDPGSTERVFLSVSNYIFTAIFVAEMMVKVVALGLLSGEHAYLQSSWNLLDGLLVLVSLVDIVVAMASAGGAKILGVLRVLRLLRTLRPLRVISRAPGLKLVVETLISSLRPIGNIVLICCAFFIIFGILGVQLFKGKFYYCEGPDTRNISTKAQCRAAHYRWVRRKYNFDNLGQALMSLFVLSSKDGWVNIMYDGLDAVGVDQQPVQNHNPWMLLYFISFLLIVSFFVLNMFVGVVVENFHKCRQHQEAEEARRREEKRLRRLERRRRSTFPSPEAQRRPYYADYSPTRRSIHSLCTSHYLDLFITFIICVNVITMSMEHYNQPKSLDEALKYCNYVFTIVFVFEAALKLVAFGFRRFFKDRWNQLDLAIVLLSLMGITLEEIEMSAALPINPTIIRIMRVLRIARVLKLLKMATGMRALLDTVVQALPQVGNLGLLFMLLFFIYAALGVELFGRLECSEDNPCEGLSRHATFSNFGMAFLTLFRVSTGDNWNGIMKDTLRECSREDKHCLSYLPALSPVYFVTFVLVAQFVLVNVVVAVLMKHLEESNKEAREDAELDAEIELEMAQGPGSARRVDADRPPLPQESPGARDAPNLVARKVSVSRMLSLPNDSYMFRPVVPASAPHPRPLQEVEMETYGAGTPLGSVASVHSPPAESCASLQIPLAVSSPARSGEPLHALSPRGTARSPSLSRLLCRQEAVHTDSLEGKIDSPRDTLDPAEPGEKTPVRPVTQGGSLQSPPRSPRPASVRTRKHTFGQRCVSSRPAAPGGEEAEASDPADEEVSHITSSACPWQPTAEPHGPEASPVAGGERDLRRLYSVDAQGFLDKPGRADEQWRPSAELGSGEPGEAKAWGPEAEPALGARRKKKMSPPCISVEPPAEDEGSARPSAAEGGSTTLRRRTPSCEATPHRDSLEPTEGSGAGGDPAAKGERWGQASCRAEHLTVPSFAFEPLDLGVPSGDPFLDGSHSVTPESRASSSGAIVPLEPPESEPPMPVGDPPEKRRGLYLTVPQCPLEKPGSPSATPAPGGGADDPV

The assay addresses T1, voltage-dependent T-type calcium channel subunit alpha-1G (Cav3.2) (Homo sapiens, UniProt O95180).
T1 construct: expressed in transfected cells; host or cells: HEK293
Briefly: FLIPR calcium flux assay, HEK293 cells recombinantly expressing Cav3.2. The note with it: Cav3.2-channel, Fluo-4-AM, 3 min incubation, stimulation with 10 mM CaCl2. Format: cell-based. Put shortly:
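Calcium influx was triggered by adding CaCl2 to 10 mM final, 3 min after compounds in tetraethylammonium-based buffer, pH 7.2, reached Fluo-4-AM-loaded recombinant HEK293 cells. The integrated kinetic fluorescence signal per concentration gave concentration-response curves by non-linear sigmoidal regression.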
Background: Calcium assays in cells follow changes in intracellular calcium, usually with a dye or a luminescent sensor.
Regarding `N#Cc1c(F)cc(Cn2ccc(NC(=O)Cc3ccc(C4(C(F)(F)F)CC4)cc3)n2)cc1F` [Example 350, N-[1-(4-Cyano-3,5-difluoro-benzyl)-1H-pyrazol-3-yl]-2-[4-(1-trifluoromethyl-cyclopropyl)-phenyl]-acetamide], the IC50 is 69 nM. Regarding `N#Cc1c(F)cc(Cn2ccc(NC(=O)Cc3ccc(N4CCCC4)nc3)n2)cc1F` [Example 351, N-[1-(4-Cyano-3,5-difluoro-benzyl)-1H-pyrazol-3-yl]-2-(6-pyrrolidin-1-yl-pyridin-3-yl)-acetamide], the IC50 stood at 65 nM. Turning to `CC(C)(C)c1ccc(CC(=O)Nc2ccn(Cc3cc(F)c(C#N)c(F)c3)n2)cc1` [Example 352, 2-(4-tert-Butyl-phenyl)-N-[1-(4-cyano-3,5-difluoro-benzyl)-1H-pyrazol-3-yl]-acetamide], the IC50 is 22 nM. As to `CC(C)c1ccc(CC(=O)Nc2ccn(Cc3cc(F)c(C#N)c(F)c3)n2)cc1` [Example 353, N-[1-(4-Cyano-3,5-difluoro-benzyl)-1H-pyrazol-3-yl]-2-(4-isopropyl-phenyl)-acetamide], the IC50 amounted to 30 nM. Take `N#Cc1ccc(Cn2ccc(NC(=O)Cc3ccc(C4(C#N)CC4)cc3)n2)nc1` [Example 354, 2-[4-(1-Cyano-cyclopropyl)-phenyl]-N-[1-(5-cyano-pyridin-2-ylmethyl)-1H-pyrazol-3-yl]-acetamide]: the IC50 worked out at 248 nM.

Regarding `N#Cc1cc(Cn2ccc(NC(=O)Cc3ccc(C4(C#N)CC4)cc3)n2)ccc1F` [Example 355, 2-[4-(1-Cyano-cyclopropyl)-phenyl]-N-[1-(3-cyano-4-fluoro-benzyl)-1H-pyrazol-3-yl]-acetamide], the IC50 stood at 26 nM.

As for `N#Cc1ccc(Cn2ccc(NC(=O)Cc3ccc(C4(O)CC4)cc3)n2)nc1` [Example 356, N-[1-(5-Cyano-pyridin-2-ylmethyl)-1H-pyrazol-3-yl]-2-[4-(1-hydroxy-cyclopropyl)-phenyl]-acetamide], the IC50 was 327 nM. The figure for `CCn1ncc2cc(CC(=O)Nc3ccn(Cc4cc(F)c(C#N)c(F)c4)n3)ccc21` [Example 357, N-[1-(4-Cyano-3,5-difluoro-benzyl)-1H-pyrazol-3-yl]-2-(1-ethyl-1H-indazol-5-yl)-acetamide] is 34 nM; for `Cc1cn(C)c2ccc(CC(=O)Nc3ccn(Cc4cc(F)c(C#N)c(F)c4)n3)cc12` [Example 358, N-[1-(4-Cyano-3,5-difluoro-benzyl)-1H-pyrazol-3-yl]-2-(1,3-dimethyl-1H-indol-5-yl)-acetamide] it is 20 nM. With `COC1(c2ccc(CC(=O)Nc3ccn(Cc4cc(F)c(C#N)c(F)c4)n3)cc2)COC1` [Example 359, N-[1-(4-Cyano-3,5-difluoro-benzyl)-1H-pyrazol-3-yl]-2-[4-(3-methoxy-oxetan-3-yl)-phenyl]-acetamide], the IC50 came to 212 nM.

On to `N#Cc1c(F)cc(Cn2ccc(NC(=O)Cc3ccc(OCC4COC4)cc3)n2)cc1F` [Example 360, N-[1-(4-Cyano-3,5-difluoro-benzyl)-1H-pyrazol-3-yl]-2-[4-(oxetan-3-ylmethoxy)-phenyl]-acetamide], for which the IC50 is 360 nM. In the case of `N#Cc1c(F)cc(Cn2ccc(NC(=O)Cc3ccc(OCC4(F)COC4)cc3)n2)cc1F` [Example 361, N-[1-(4-Cyano-3,5-difluoro-benzyl)-1H-pyrazol-3-yl]-2-[4-(3-fluoro-oxetan-3-ylmethoxy)-phenyl]-acetamide], the IC50 is 80 nM. Take `CC1(COc2ccc(CC(=O)Nc3ccn(Cc4cc(F)c(C#N)c(F)c4)n3)cc2)COC1` [Example 362, N-[1-(4-Cyano-3,5-difluoro-benzyl)-1H-pyrazol-3-yl]-2-[4-(3-methyl-oxetan-3-ylmethoxy)-phenyl]-acetamide]: the IC50 was 117 nM. Turning to `N#Cc1c(F)cc(Cn2ccc(NC(=O)Cc3ccc(OCC4CC(F)(F)C4)cc3)n2)cc1F` [Example 363, N-[1-(4-Cyano-3,5-difluoro-benzyl)-1H-pyrazol-3-yl]-2-[4-(3,3-difluoro-cyclobutylmethoxy)-phenyl]-acetamide], the IC50 is 51 nM. As to `CC1(COc2ccc(CC(=O)Nc3ccn(Cc4cc(F)c(C#N)c(F)c4)n3)cc2)CC(F)(F)C1` [Example 364, N-[1-(4-Cyano-3,5-difluoro-benzyl)-1H-pyrazol-3-yl]-2-[4-(3,3-difluoro-1-methyl-cyclobutylmethoxy)-phenyl]-acetamide], the IC50 was 62 nM. In the case of `N#Cc1nc(Cn2ccc(NC(=O)Cc3ccc(C4(C(F)(F)F)CC4)cc3)n2)ccc1F` [Example 365, N-[1-(6-Cyano-5-fluoro-pyridin-2-ylmethyl)-1H-pyrazol-3-yl]-2-[4-(1-trifluoromethyl-cyclopropyl)-phenyl]-acetamide], the IC50 is 18 nM. For the molecule `Cc1ccc(Cn2ccc(NC(=O)Cc3ccc(N4CCC(F)(F)C4)nc3)n2)nc1C#N` [Example 366, N-[1-(6-Cyano-5-methyl-pyridin-2-ylmethyl)-1H-pyrazol-3-yl]-2-[6-(3,3-difluoro-pyrrolidin-1-yl)-pyridin-3-yl]-acetamide], the IC50 turned out to be 147 nM. Take `Cc1cc(CC(=O)Nc2ccn(Cc3ccc(C)c(C#N)n3)n2)ccc1OCC(F)(F)F` [Example 367, N-[1-(6-Cyano-5-methyl-pyridin-2-ylmethyl)-1H-pyrazol-3-yl]-2-[3-methyl-4-(2,2,2-trifluoro-ethoxy)-phenyl]-acetamide]: the IC50 is 10 nM. With `Cc1ccc(Cn2ccc(NC(=O)Cc3ccc4c(c3)c(C)nn4C)n2)nc1C#N` [Example 368, N-[1-(6-Cyano-5-methyl-pyridin-2-ylmethyl)-1H-pyrazol-3-yl]-2-(1,3-dimethyl-1H-indazol-5-yl)-acetamide], the IC50 came to 301 nM. With `Cc1ccc(Cn2ccc(NC(=O)Cc3ccc4c(c3)c(C)cn4C)n2)nc1C#N` [Example 369, N-[1-(6-Cyano-5-methyl-pyridin-2-ylmethyl)-1H-pyrazol-3-yl]-2-(1,3-dimethyl-1H-indol-5-yl)-acetamide], the IC50 is 64 nM. Turning to `CCn1ncc2cc(CC(=O)Nc3ccn(Cc4ccc(C)c(C#N)n4)n3)ccc21` [Example 370, N-[1-(6-Cyano-5-methyl-pyridin-2-ylmethyl)-1H-pyrazol-3-yl]-2-(1-ethyl-1H-indazol-5-yl)-acetamide], the IC50 is 578 nM.

With `Cc1ccc(Cn2ccc(NC(=O)Cc3ccc(C(C)(C)C)cc3)n2)nc1C#N` [Example 371, 2-(4-tert-Butyl-phenyl)-N-[1-(6-cyano-5-methyl-pyridin-2-ylmethyl)-1H-pyrazol-3-yl]-acetamide], the IC50 was determined as 13 nM. Turning to `Cc1ccc(Cn2ccc(NC(=O)Cc3ccc(C4(C(F)(F)F)CC4)cc3)n2)nc1C#N` [Example 372, N-[1-(6-Cyano-5-methyl-pyridin-2-ylmethyl)-1H-pyrazol-3-yl]-2-[4-(1-trifluoromethyl-cyclopropyl)-phenyl]-acetamide], the IC50 turned out to be 38 nM.

As to `Cc1ccc(Cn2ccc(NC(=O)Cc3ccc(N4CCCC4)nc3)n2)nc1C#N` [Example 373, N-[1-(6-Cyano-5-methyl-pyridin-2-ylmethyl)-1H-pyrazol-3-yl]-2-(6-pyrrolidin-1-yl-pyridin-3-yl)-acetamide], the IC50 was 349 nM. `Cc1ccc(Cn2ccc(NC(=O)Cc3ccc(OC4CC(F)(F)C4)cc3)n2)nc1C#N` [Example 374, N-[1-(6-Cyano-5-methyl-pyridin-2-ylmethyl)-1H-pyrazol-3-yl]-2-[4-(3,3-difluoro-cyclobutoxy)-phenyl]-acetamide]: the IC50 stood at 107 nM. On to `CC(C)(c1ccc(CC(=O)Nc2ccn(Cc3ccc(C#N)cn3)n2)cc1)C(F)(F)F` [Example 376, N-[1-(5-Cyano-pyridin-2-ylmethyl)-1H-pyrazol-3-yl]-2-[4-(2,2,2-trifluoro-1,1-dimethyl-ethyl)-phenyl]-acetamide], for which the IC50 is 20 nM. As for `Cc1ccc(Cn2ccc(NC(=O)Cc3ccc(C4(C)CC4)cc3)n2)nc1C#N` [Example 377, N-[1-(6-Cyano-5-methyl-pyridin-2-ylmethyl)-1H-pyrazol-3-yl]-2-[4-(1-methyl-cyclopropyl)-phenyl]-acetamide], the IC50 was found to be 25 nM. As to `CC1(C)Cc2cc(CC(=O)Nc3ccn(Cc4ccc(C#N)cn4)n3)ccc2O1` [Example 378, N-[1-(5-Cyano-pyridin-2-ylmethyl)-1H-pyrazol-3-yl]-2-(2,2-dimethyl-2,3-dihydro-benzofuran-5-yl)-acetamide], the IC50 was determined as 249 nM.

For the molecule `CC1(C)COc2ccc(CC(=O)Nc3ccn(Cc4ccc(C#N)cn4)n3)cc21` [Example 379, N-[1-(5-Cyano-pyridin-2-ylmethyl)-1H-pyrazol-3-yl]-2-(3,3-dimethyl-2,3-dihydro-benzofuran-5-yl)-acetamide], the IC50 came out at 658 nM. For the molecule `CC1(C)Cc2ccc(CC(=O)Nc3ccn(Cc4ccc(C#N)cn4)n3)cc2O1` [Example 380, N-[1-(5-Cyano-pyridin-2-ylmethyl)-1H-pyrazol-3-yl]-2-(2,2-dimethyl-2,3-dihydro-benzofuran-6-yl)-acetamide], the IC50 stood at 214 nM.

Turning to `Cc1ccc(CC(=O)Nc2ccn(Cc3ccc(C#N)cn3)n2)cc1OCC(F)(F)F` [Example 381, N-[1-(5-Cyano-pyridin-2-ylmethyl)-1H-pyrazol-3-yl]-2-[4-methyl-3-(2,2,2-trifluoro-ethoxy)-phenyl]-acetamide], the IC50 turned out to be 54 nM. The figure for `N#Cc1ccc(Cn2ccc(NC(=O)Cc3ccc(OCC(F)(F)F)c(F)c3)n2)nc1` [Example 382, N-[1-(5-Cyano-pyridin-2-ylmethyl)-1H-pyrazol-3-yl]-2-[3-fluoro-4-(2,2,2-trifluoro-ethoxy)-phenyl]-acetamide] is 114 nM.

Turning to `COC1(c2ccc(CC(=O)Nc3ccn(Cc4ccc(C#N)cn4)n3)cc2)CC1` [Example 384, N-[1-(5-Cyano-pyridin-2-ylmethyl)-1H-pyrazol-3-yl]-2-[4-(1-methoxy-cyclopropyl)-phenyl]-acetamide], the IC50 was 128 nM.

Values taken from patent publication US9932314B2, “Pyrazole compounds and their use as T-type calcium channel blockers” (IDORSIA PHARMACEUTICALS LTD, priority 2015, dated 2018).
